Source: patent US20220175768A1, “FGFR TYROSINE KINASE INHIBITORS FOR THE TREATMENT OF UROTHELIAL CARCINOMA” (Janssen Pharmaceutica NV, priority 2019, published 2022)

How the values were obtained:
[1] = Excretion following a single oral dose of radiolabeled erdafitinib; type: in vivo, human
[2] = human, in vivo
[3] = system: serum phosphate; test: Pharmacodynamics: serum phosphate level; type: in vivo, human; settings: consequence of FGFR inhibition
Excerpt: To manage phosphate elevation, phosphate binders were permitted. Avoid concomitant use with agents that can alter serum phosphate levels before the initial dose increase period based on serum phosphate levels.

[4] = clinical; settings: human, in vivo

For `COc1cc(OC)cc(N(CCNC(C)C)c2ccc3ncc(-c4cnn(C)c4)nc3c2)c1` [erdafitinib, N-(3,5-dimethoxy-phenyl)-N′-(1-methylethyl)-N-[3-(1-methyl-1H-pyrazol-4-yl)quinoxalin-6-yl]ethane-1,2-diamine], the “Dose recovered in feces” value [1] was “approximately 69%”, the “Dose recovered in feces as unchanged” value [1] was 19% and the “Dose recovered in urine” value [1] was 19%. The “Dose recovered in urine as unchanged” value [1] was 13%, the “Circulating metabolites in plasma” value [2] was “no circulating metabolites” and the “Exposure (Cmax and AUC) versus dose” value [2] was “increased proportionally”. The “Mean total apparent clearance (CL/F)” value [2] was 0.362 L/h, the “Time to steady state” value [2] was 2 weeks and the “Effect on serum phosphate level” value [3] was “increased serum phosphate level”. For the same compound, the Vd [4] was 29 L and the half-life [4] was 59 h.
